According to patent US11985974B2, “Antimicrobial ferulic acid derivatives and uses thereof” (WISCONSIN ALUMNI RESEARCH FOUNDATION, priority 2014, dated 2024):
Entries after “also recorded” stand apart in the source; their conditions may differ.

Experiments:
[1] = tested on: S. cerevisiae (BY4741 his3Δ::KanMX); experiment: Multivariate morphological analysis (CalMorph); format: cell-based, Saccharomyces cerevisiae
Procedure: Cells of budding yeast S. cerevisiae (BY4741 his3Δ::KanMX; hereafter, his3Δ) were cultured in 2 mL 1% Bacto yeast extract (BD Biosciences), 2% Bacto peptone (BD Biosciences), and 2% glucose (YPD) with 0, 25, 50, 75, 100, or 125 μg/mL poacic acid or a DMSO control at 25° C. for 16 h until the early log phase. The maximum concentration of the drug (125 μg/mL) was determined based on the growth inhibition rates (10%). Cell fixation, staining, and observation were performed (n=5) as described previously (Ohya et al. 2005). Images of cell shape, actin, and nuclear DNA were analyzed using the image processing software CalMorph (version 1.2), which extracted a total of 501 morphological quantitative values from at least 200 individual cells in each experiment (Ohya et al. 2005). Images were processed using Photoshop CS2 (Adobe Systems) for illustrative purposes.
To assess the morphological similarity between the cells treated with poacic acid and nonessential deletion mutants or cells treated with other cell wall-affecting drugs, their morphological profiles were compared as described previously (Ohnuki et al. 2010). To identify functional gene clusters, the most significant similar mutants (43 genes, P<0.01 after Bonferroni correction, t test) were selected as a query for GO term analysis (GO term finder in the Saccharomyces genome database).
To extract independent and characteristic features of morphology induced by poacic acid, a two-step principal component analysis was performed as described previously (Ohnuki et al. 2012). To compare phenotypic noise in the yeast population (poacic acid vs. DMSO), the noise score was calculated as described previously (Yvert et al. 2013).

[2] = tested on: bck1Δ mutant; experiment: Sensitivity of individual bck1Δ mutant; format: cell-based, Saccharomyces cerevisiae; details: bck1Δ mutant vs control strain
Procedure: The diferulate compounds tested were synthesized as described by Lu et al. (2012) and resuspended in DMSO. Caspofungin, nikkomycin Z, and MMS were purchased from Sigma-Aldrich. Echinocandin B was a gift from O. Kondo (Chugai Pharmaceuticals, Tokyo, Japan). Micafungin was provided by Astellas Pharma. Diferulates were initially screened at a concentration of 1 mg/mL to determine bioactivity. Cells of Saccharomyces cerevisiae (MATα pdr1Δ::natMX pdr3Δ::KLURA3 snq2Δ::KI.LEU2 can1Δ::STE2pr-Sp_his5 lyp1Δ his3Δ1 leu2Δ0 ura3Δ0 met15Δ0), referred to as the control strain, were grown in 200-μL cultures at 30° C. in YPD with a drug or DMSO control. Plates were read on a TECAN M1000 over a 48-h growth period. The specific growth rate was calculated using GCAT analysis software (https://gcat3-pub.glbrc.org/) (Sato et al. 2014). When presented, IC50 values for growth rate inhibition were calculated from triplicate eight-point dose curves and SigmaPlot 12.0. When presented, error bars are means±SEs of at least three replicates.

[3] = tested on: P. sojae (field isolate); experiment: Colony growth of P. sojae on plates; format: cell-based, Phytophthora sojae; details: 0, 500, 1,000, 1,500 μg/mL, 7 d, P<0.01
Procedure: (§1) To test inhibition in liquid culture, a dose curve of 0, 125, 250, and 500 μg/mL poacic acid in 100 mL potato dextrose broth (n=3) was used. Cultures of S. sclerotiorum strain 1980 were inoculated with 100 μL homogenized mycelia and grown at 25° C. for 48 h. The mycelia in the liquid media were dried and weighed. The growth inhibition of poacic acid on solid agar cultures (potato dextrose agar) was assessed by generating replicate plates (n=3) containing 0, 125, 250, and 500 μg/mL poacic acid. Plates were inoculated with an actively growing plug of S. sclerotiorum and grown at 25° C. The mycelial radial growth after 48 h was measured Inhibition of S. sclerotiorum in planta was tested by inoculating detached soybean leaves of the commercial variety Williams 82 with an agar plug of actively growing S. sclerotiorum mycelia. Leaves were treated one time before inoculation with either an aerosol spray of water with DMSO (control) or a 500 μg/mL solution of poacic acid. Leaves were incubated in a moist environment, and lesion development was monitored up to 120 h postinoculation. […] The growth inhibition of poacic acid was assessed at 0, 500, 1,000, and 1,500 μg/mL in replicate plates (n=3). […] Colony diameter was monitored for each treatment in a time-course experiment. […]

[4] = tested on: poacic acid-resistant mutant (SUR1); experiment: Poacic acid-resistant mutant (PAr) with SNP in SUR1; format: cell-based, Saccharomyces cerevisiae
Procedure: Agar containing 500 μg/mL poacic acid was inoculated with ˜1 million cells of yeast (control strain). After 1 wk, two colonies were found growing on the agar. Single-colony isolates were obtained and found to be resistant to poacic acid. For whole-genome sequencing, single-colony isolates of poacic acid-resistant mutant, the caspofungin-resistant mutant, and the control strain (WT) were grown in triplicate 200-μL cultures and pooled for genomic DNA extraction (Epicentre MasterPure Yeast Kit; MPY80200). The genomic DNA was prepared for Illumina whole-genome sequencing using the Illumina TruSeqKkit (FC-121-3001) and sequenced by 150-bp paired-end reads on the MiSeq platform.
To determine mutations in the drug-resistant mutants, read quality analysis was performed using FastQC (www.bioinformatics.babraharm.ac.uk/projects/fastqc/). Short reads were examined for quality and trimmed at the 3′ end when average base quality in a 3-nt window fell below Q30. Short reads were mapped to the standard S. cerevisiae reference genome, strain S288c (obtained from the National Center for Biotechnology Information RefSeq repository), using Burrows-Wheeler Alignment (BWA version 0.6.2) (Li et al. 2009) using the default parameters, with the exception of the fraction of missing alignments threshold, which was set at 0.08 (−n in bwa aln). […]

[5] = tested on: S. sclerotiorum strain 1980; experiment: Growth inhibition of S. sclerotiorum in liquid and agar culture; format: cell-based, Sclerotinia sclerotiorum; details: 0, 125, 250, 500 μg/mL, 48 h, P<0.01
Procedure: as §1

COc1cc(/C=C/c2cc(/C=C/C(=O)O)cc(OC)c2O)ccc1O [poacic acid, (E)-4-Hydroxy-3-{2-[(E)-4-hydroxy-3-methoxystyryl]}-5-methoxycinnamic acid]
bud neck size ([1]; 0-125 μg/mL, 16 h): dose-dependent increase in bud neck size
heterogeneity of cell morphology ([1]; 0-125 μg/mL, 16 h): heterogeneous morphologies
inhibition at 125 µg/mL ([1]; Saccharomyces cerevisiae, read-out: growth inhibition rates): 10%
morphological correlation with other cell wall-affecting compounds ([1]; vs micafungin, echinocandin B and other cell wall-affecting compounds): lower morphological correlations
reduction in the IC50 compared with the control strain (WT) [2]: six-fold reduction; also recorded: six-fold more sensitive
colony growth [3]: significantly reduces colony growth
resistance compared with the control strain ([4]; PAr mutant with SNP in SUR1): increased resistance
colony formation on agar ([4]; spontaneous chain-termination mutant in SUR1, agar with 500 μg poacic acid/mL): able to form colonies
colony radial growth on agar plates [5]: dose-dependent decrease
fungal mass (mycelia weight) in liquid culture [5]: dose-dependent decrease
